Results taken from US20260250318A1, “COMPOSITIONS AND METHODS FOR CROSSING THE BLOOD BRAIN BARRIER” (VOYAGER THERAPEUTICS, INC., priority 2022, published 2026).

Tests used:
[1] = test system: brains, heart, liver, muscle, and DRG of the NHPs; assay: Maturation of TTM-001 and TTM-002 capsids, NGS enrichment in NHP tissues; type: in vivo; details: relative to AAV9 control
In short: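 Variants carry mutations within and flanking the loop IV peptide insert: positions 450–466 were triplet-randomized, while positions 449–466 received low-frequency point mutations. The combined pool went into two NHPs, and each peptide was scored by NGS enrichment ratio against AAV9.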

brain = assay: Matured TTM-001 and TTM-002 variants, NGS enrichment in mouse brain; type: in vivo, mice; details: relative to AAV9 control
[2] = NGS fold-enrichment of RNA, NHP brain
[3] = NGS fold-enrichment, DRG of NHPs
[4] = NGS fold-enrichment, NHP liver DNA
[5] = NGS fold-enrichment, NHP liver RNA
[6] = NGS fold-enrichment, NHP muscle
[7] = NGS fold-enrichment, RNA, brain of NHPs
[8] = NGS fold-enrichment, heart of NHPs
[9] = NGS fold-enrichment, liver DNA of NHPs
[10] = NGS fold-enrichment, liver RNA of NHPs
[11] = NGS fold-enrichment, muscle of NHPs
[12] = NGS fold-enrichment, brain of mice
[13] = NGS fold-enrichment, mouse brain
[14] = NGS fold-enrichment of matured AAV capsid variants, NHP brain, RNA

Sequence	Fold Enrichment relative to AAV9, Brain (NHP) [1, 2]	Fold Enrichment relative to AAV9, DRG (NHP) [1, 3]	Fold Enrichment relative to AAV9, DRG (NHP) ([1]; NGS fold-enrichment, NHP DRG)	Fold Enrichment relative to AAV9, Heart (NHP) ([1]; NGS fold-enrichment, NHP heart)	Fold Enrichment relative to AAV9, Liver DNA (NHP) [1, 4]	Fold Enrichment relative to AAV9, Liver RNA (NHP) [1, 5]	Fold Enrichment relative to AAV9, Muscle (NHP) [1, 6]	Fold Enrichment relative to AAV9, Brain (NHP) [1, 7]	Fold Enrichment relative to AAV9, Heart (NHP) [1, 8]	Fold Enrichment relative to AAV9, Liver DNA (NHP) [1, 9]	Fold Enrichment relative to AAV9, Liver RNA (NHP) [1, 10]	Fold Enrichment relative to AAV9, Muscle (NHP) [1, 11]	Fold Enrichment relative to AAV9, Brain (Mouse) (brain; [12])	Fold Enrichment relative to AAV9, Brain (Mouse) (brain; [13])	other results
KTINGSGSPHSKAQHRIT	76.849 fold	0.105 fold	0.105 fold	0.499 fold	0.214 fold	1.424 fold	0.170 fold	76.849 fold	0.499 fold	0.214 fold	1.424 fold	0.170 fold	127.000 fold	127.000 fold	
KTEKMSGSPHSKAQNQQT	169.461 fold	0.523 fold	0.523 fold	0.000 fold	0.158 fold	0.000 fold	0.000 fold	169.461 fold	0.000 fold	0.158 fold	0.000 fold	0.000 fold	109.161 fold	109.161 fold	
KTEHLSGSPHSKAQNQQT	83.080 fold	0.000 fold	0.000 fold	0.000 fold	0.189 fold	0.021 fold	0.012 fold	83.080 fold	0.000 fold	0.189 fold	0.021 fold	0.012 fold	69.494 fold	69.494 fold	
KTCNGHDSPHKSGRNQQT	94.616 fold		0.000 fold	0.025 fold	0.128 fold	0.000 fold	0.000 fold							12.496 fold	
KTINGSGSPHSKLQKQQT															Fold Enrichment relative to AAV9, Brain (NHP) [1, 14]: 52.144 fold; Fold Enrichment relative to AAV9, DRG (NHP) ([1]; NHP DRG): 0.615 fold; Fold Enrichment relative to AAV9, Heart (NHP) ([1]; NHP heart): 0.477 fold; Fold Enrichment relative to AAV9, Liver DNA (NHP) ([1]; NHP liver, DNA): 0.429 fold; Fold Enrichment relative to AAV9, Liver RNA (NHP) ([1]; NHP liver, RNA): 1.113 fold; Fold Enrichment relative to AAV9, Muscle (NHP) ([1]; NHP muscle): 1.071 fold; Fold Enrichment relative to AAV9, Brain (Mouse) (brain; mouse brain): 61.833 fold
TTINGSGSPHSKAQNQQT (peptide inserted in AAV capsid)	114.856 fold	1.340 fold	1.340 fold	14.856 fold	0.957 fold	1.281 fold	0.827 fold	114.856 fold	14.856 fold	0.957 fold	1.281 fold	0.827 fold	72.058 fold	72.058 fold	
KTINGHDSPHKSRQSQHT	88.544 fold		0.499 fold	0.046 fold	0.032 fold	0.059 fold	0.000 fold							8.324 fold	
KTEMKHDSPHKSGQNQQT	240.075 fold		0.000 fold	0.000 fold	0.000 fold	0.000 fold	0.000 fold							3.183 fold	
KTVNGHDSPHKSLQNQQT	112.925 fold		0.000 fold	0.301 fold	0.322 fold	0.000 fold	0.059 fold							16.726 fold	
EAINGSGSPHSKAQNQQT															Fold Enrichment relative to AAV9, Brain (NHP) [1, 14]: 50.243 fold; Fold Enrichment relative to AAV9, DRG (NHP) ([1]; NHP DRG): 0.629 fold; Fold Enrichment relative to AAV9, Heart (NHP) ([1]; NHP heart): 0.094 fold; Fold Enrichment relative to AAV9, Liver DNA (NHP) ([1]; NHP liver, DNA): 1.519 fold; Fold Enrichment relative to AAV9, Liver RNA (NHP) ([1]; NHP liver, RNA): 0.057 fold; Fold Enrichment relative to AAV9, Muscle (NHP) ([1]; NHP muscle): 0.000 fold; Fold Enrichment relative to AAV9, Brain (Mouse) (brain; mouse brain): 117.305 fold
KTINGSGSPHSKAPGLQT		0.007 fold						62.043 fold	0.000 fold	0.210 fold	0.651 fold	0.005 fold	144.610 fold		
KTEYISGSPHSKAQNQQT															Fold Enrichment relative to AAV9, Brain (NHP) [1, 14]: 57.891 fold; Fold Enrichment relative to AAV9, DRG (NHP) ([1]; NHP DRG): 0.000 fold; Fold Enrichment relative to AAV9, Heart (NHP) ([1]; NHP heart): 0.000 fold; Fold Enrichment relative to AAV9, Liver DNA (NHP) ([1]; NHP liver, DNA): 0.075 fold; Fold Enrichment relative to AAV9, Liver RNA (NHP) ([1]; NHP liver, RNA): 0.076 fold; Fold Enrichment relative to AAV9, Muscle (NHP) ([1]; NHP muscle): 0.000 fold; Fold Enrichment relative to AAV9, Brain (Mouse) (brain; mouse brain): 57.620 fold
KTINGHDSPHKSGQNKLE	76.204 fold		0.000 fold	1.430 fold	0.031 fold	0.015 fold	0.000 fold							12.419 fold	
KTINGSGSPHSKGQNPPT		0.000 fold						72.339 fold	0.206 fold	0.041 fold	0.000 fold	0.000 fold	134.808 fold		
KTEQTSGSPHSKAQNQQT															Fold Enrichment relative to AAV9, Brain (NHP) [1, 14]: 56.683 fold; Fold Enrichment relative to AAV9, DRG (NHP) ([1]; NHP DRG): 0.000 fold; Fold Enrichment relative to AAV9, Heart (NHP) ([1]; NHP heart): 0.045 fold; Fold Enrichment relative to AAV9, Liver DNA (NHP) ([1]; NHP liver, DNA): 0.430 fold; Fold Enrichment relative to AAV9, Liver RNA (NHP) ([1]; NHP liver, RNA): 0.792 fold; Fold Enrichment relative to AAV9, Muscle (NHP) ([1]; NHP muscle): 0.000 fold; Fold Enrichment relative to AAV9, Brain (Mouse) (brain; mouse brain): 59.360 fold
